The results in this text go back to patent publication US12528812B2 (Genentech, Inc., priority 2020, dated 2026).

Like-named read-outs stand apart in the source and are kept apart here.

Assay [1] addresses T1, recombinant human JAK1 kinase domain protein (Residues 854-1154) (Homo sapiens, UniProt P23458).
T1 construct: human JAK1 kinase domain protein (Residues 854-1154); purchased Proteros Biostructures GmbH (Martinsried, Germany); host or cells: insect cells
Description: JAK1 biochemical assay (LabChip mobility shift, Ki). The following applies: read-out: Biochem JAK1 Ki.

Assay [2] has as its system IL-13-stimulated STAT6 phosphorylation in human lung bronchial epithelial BEAS-2B cell line. Description: P-STAT6 BEAS-2B + IL-13 cell assay. The assay is classed as cell-based. The following applies: BEAS2B cells, IL13 stimulation, read-out: Cellular JAK1 PSTAT6 BEAS2B + IL13. A digest of the protocol:
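Phospho-STAT6 (Tyr641) was quantified in lysates by MSD electrochemiluminescence after human IL-13 challenge (250 ng/mL stock, 15 min, 37 °C). Before that, BEAS-2B cells cultured 48 h had 1 h compound exposure over 10 concentrations. Percent of control was fitted to a four-parameter logistic model to give IC50.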

In assay [3] the target is Recombinant human JAK2 kinase domain protein (Residues 812-1132) (Homo sapiens, UniProt O60674). In words: JAK2 biochemical assay (LabChip mobility shift, Ki). The following applies: Biochem JAK2 Ki.
Chain of Recombinant human JAK2 kinase domain protein (Residues 812-1132) (O60674 812-1132): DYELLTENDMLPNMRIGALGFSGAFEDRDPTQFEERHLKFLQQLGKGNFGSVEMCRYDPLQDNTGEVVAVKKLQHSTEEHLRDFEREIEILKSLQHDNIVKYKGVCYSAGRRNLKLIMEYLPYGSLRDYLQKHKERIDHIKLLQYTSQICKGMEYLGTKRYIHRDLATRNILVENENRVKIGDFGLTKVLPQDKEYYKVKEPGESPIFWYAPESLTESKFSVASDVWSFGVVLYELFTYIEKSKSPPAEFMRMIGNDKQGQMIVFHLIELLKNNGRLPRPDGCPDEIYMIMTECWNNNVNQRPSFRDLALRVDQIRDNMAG

T1 sequence (P23458 854-1154): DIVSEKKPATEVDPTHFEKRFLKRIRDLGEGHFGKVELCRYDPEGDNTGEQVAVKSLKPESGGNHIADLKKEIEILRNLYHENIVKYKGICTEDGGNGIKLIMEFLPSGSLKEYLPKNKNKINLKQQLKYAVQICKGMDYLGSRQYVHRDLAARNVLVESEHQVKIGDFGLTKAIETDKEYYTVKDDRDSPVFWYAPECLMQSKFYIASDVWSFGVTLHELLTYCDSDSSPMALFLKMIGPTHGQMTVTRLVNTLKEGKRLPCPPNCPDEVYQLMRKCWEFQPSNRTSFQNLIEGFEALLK

On to `CN1CCCC(O)(Cn2cc(Oc3ccc(OC(F)F)c(-c4nn(C)cc4NC(=O)c4cnn5cccnc45)c3)cn2)CC1` (stereo not drawn) [Example 196, N-[3-[2-(difluoromethoxy)-5-[1-[(4-hydroxy-1-methyl-azepan-4-yl)methyl]pyrazol-4-yl]oxy-phenyl]-1-methyl-pyrazol-4-yl]pyrazolo[1,5-a]pyrimidine-3-carboxamide], for which the figures for the Ki in assay [1] and in assay [3] were 0.8 nM and 0.52 nM, respectively. Further, the IC50 in assay [2] (Homo sapiens, BEAS-2B) was found to be 120 nM.
For the compound `CN1CCCC(O)(Cn2cc(Oc3ccc(OC(F)F)c(-c4nn(C)cc4NC(=O)c4cnn5cccnc45)c3)cn2)CC1` (stereo not drawn) [Example 197, N-[3-[2-(difluoromethoxy)-5-[1-[(4-hydroxy-l-methyl-azepan-4-yl)methyl]pyrazol-4-yl]oxy-phenyl]-1-methyl-pyrazol-4-yl]pyrazolo[1,5-a]pyrimidine-3-carboxamide], the Ki in assay [1] was found to be 0.81 nM; in assay [3], 0.51 nM. For the same compound, in assay [2], the IC50 is 130 nM.
Consider `CN(C)CCN1CC(O)(Cn2cc(Oc3ccc(OC(F)F)c(-c4nn(C)cc4NC(=O)c4cnn5cccnc45)c3)cn2)C1` [Example 198, N-[3-[2-(difluoromethoxy)-5-[1-[[1-[2-(dimethylamino)ethyl]-3-hydroxy-azetidin-3-yl]methyl]pyrazol-4-yl]oxy-phenyl]-1-methyl-pyrazol-4-yl]pyrazolo[1,5-a]pyrimidine-3-carboxamide], for which the Ki came to 1.5 nM in assay [1] and 0.83 nM in assay [3]. In addition, in assay [2] (Homo sapiens, BEAS-2B), the IC50 came to 1000 nM.
Turning to `Cn1cc(NC(=O)c2cnn3cccnc23)c(-c2cc(Oc3cnn(CC4(O)CN5CCC4CC5)c3)ccc2OC(F)F)n1` (stereo not drawn) [Example 199, N-[3-[2-(difluoromethoxy)-5-[1-[(3-hydroxyquinuclidin-3-yl)methyl]pyrazol-4-yl]oxy-phenyl]-1-methyl-pyrazol-4-yl]pyrazolo[1,5-a]pyrimidine-3-carboxamide], the inhibition constant (Ki) came to 0.88 nM in assay [1] and 0.43 nM in assay [3]. Also, the IC50 in assay [2] was 130 nM.
For `Cn1cc(NC(=O)c2cnn3cccnc23)c(-c2cc(Oc3cnn(CC4(O)CN5CCC4CC5)c3)ccc2OC(F)F)n1` (stereo not drawn) [Example 200, N-[3-[2-(difluoromethoxy)-5-[1-[(3-hydroxyquinuclidin-3-yl)methyl]pyrazol-4-yl]oxy-phenyl]-1-methyl-pyrazol-4-yl]pyrazolo[1,5-a]pyrimidine-3-carboxamide], in that order: 3.6 nM, 1.6 nM and 780 nM.
Regarding `Cn1cc(NC(=O)c2cnn3cccnc23)c(-c2cc(Oc3ccnnc3)ccc2OC(F)F)n1` [Example 202, N-[3-[2-(difluoromethoxy)-5-pyridazin-4-yloxy-phenyl]-1-methyl-pyrazol-4-yl]pyrazolo[1,5-a]pyrimidine-3-carboxamide], the inhibition constant (Ki) was 0.68 nM in assay [1] and 0.38 nM in assay [3]. In assay [2] (Homo sapiens, BEAS-2B), the IC50 is 26 nM.
For `CN1CCC(n2cc(Oc3ccc(OC(F)F)c(-c4nn(C)cc4NC(=O)c4cnn5cccnc45)c3)cn2)CC1` [Example 203, N-[3-[2-(difluoromethoxy)-5-[1-(1-methyl-4-piperidyl)pyrazol-4-yl]oxy-phenyl]-1-methyl-pyrazol-4-yl]pyrazolo[1,5-a]pyrimidine-3-carboxamide], in that order: 2.5 nM, 2.3 nM and 75 nM.
For `Cn1cc(NC(=O)c2cnn3cccnc23)c(-c2cc(Oc3cccnn3)ccc2OC(F)F)n1` [Example 204, N-[3-[2-(difluoromethoxy)-5-pyridazin-3-yloxy-phenyl]-1-methyl-pyrazol-4-yl]pyrazolo[1,5-a]pyrimidine-3-carboxamide], in that order: 2.2 nM, 1.4 nM and 56 nM.
Consider `CN1CC(N(C)C(=O)c2cccc(Oc3ccc(OC(F)F)c(-c4nn(C)cc4NC(=O)c4cnn5cccnc45)c3)c2)C1` [Example 205, N-[3-[2-(difluoromethoxy)-5-[3-[methyl-(1-methylazetidin-3-yl)carbamoyl]phenoxy]phenyl]-1-methyl-pyrazol-4-yl]pyrazolo[1,5-a]pyrimidine-3-carboxamide], for which the inhibitory constant (Ki) in assay [1] was 0.74 nM; in assay [3], 0.79 nM. Further, the IC50 in assay [2] (Homo sapiens, BEAS-2B) was 40 nM.
For `CN(C)CCN(C)C(=O)c1cccc(Oc2ccc(OC(F)F)c(-c3nn(C)cc3NC(=O)c3cnn4cccnc34)c2)c1` [Example 206, N-[3-[2-(difluoromethoxy)-5-[3-[2-(dimethylamino)ethyl-methyl-carbamoyl]phenoxy]phenyl]-1-methyl-pyrazol-4-yl]pyrazolo[1,5-a]pyrimidine-3-carboxamide], in that order: 0.89 nM, 0.88 nM and 45 nM.
The corresponding values for `CCN1CC(O)(Cn2cc(Oc3ccc(OC(F)F)c(-c4nn(C)cc4NC(=O)c4cnn5cccnc45)c3)cn2)C1` [Example 207, N-[3-[2-(difluoromethoxy)-5-[1-[(1-ethyl-3-hydroxy-azetidin-3-yl)methyl]pyrazol-4-yl]oxy-phenyl]-1-methyl-pyrazol-4-yl]pyrazolo[1,5-a]pyrimidine-3-carboxamide] are 0.73 nM, 0.53 nM and 33 nM.
For `CCn1cc(NC(=O)c2cnn3cccnc23)c(-c2cc(Oc3cnn(CC4(O)CN(C)C4)c3)ccc2OC(F)F)n1` [Example 208, N-[3-[2-(difluoromethoxy)-5-[1-[(3-hydroxy-1-methyl-azetidin-3-yl)methyl]pyrazol-4-yl]oxy-phenyl]-1-ethyl-pyrazol-4-yl]pyrazolo[1,5-a]pyrimidine-3-carboxamide], in that order: 1.2 nM, 1.2 nM and 72 nM.
Regarding `CC(C)N1CCC(O)(Cn2cc(Oc3ccc(OC(F)F)c(-c4nn(C)cc4NC(=O)c4cnn5cccnc45)c3)cn2)CC1` [Example 209, N-[3-[2-(difluoromethoxy)-5-[1-[(4-hydroxy-1-isopropyl-4-piperidyl)methyl]pyrazol-4-yl]oxy-phenyl]-1-methyl-pyrazol-4-yl]pyrazolo[1,5-a]pyrimidine-3-carboxamide], the inhibition constant Ki was 0.96 nM in assay [1] and 0.48 nM in assay [3]. In addition, the IC50 in assay [2] (Homo sapiens, BEAS-2B) turned out to be 190 nM.
For `CCN1CCC(O)(Cn2cc(Oc3ccc(OC(F)F)c(-c4nn(C)cc4NC(=O)c4cnn5cccnc45)c3)cn2)CC1` [Example 212, N-[3-[2-(difluoromethoxy)-5-[1-[(1-ethyl-4-hydroxy-4-piperidyl)methyl]pyrazol-4-yl]oxy-phenyl]-1-methyl-pyrazol-4-yl]pyrazolo[1,5-a]pyrimidine-3-carboxamide], in that order: 0.84 nM, 0.6 nM and 120 nM.
